From article PMC6158189, “A pharmacological probe identifies cystathionine β-synthase as a new negative regulator for ferroptosis” (Cell Death & Disease, 2018) come the findings set out here.

In this test the target is T1, endogenous hCBS in HepG2 cells (Homo sapiens, UniProt P35520).
T1 construct: effects of CH004 on the activity of endogenous CBS by incubating with HepG2; endogenous in cells; host or cells: HepG2
T1 sequence (P35520 1-551): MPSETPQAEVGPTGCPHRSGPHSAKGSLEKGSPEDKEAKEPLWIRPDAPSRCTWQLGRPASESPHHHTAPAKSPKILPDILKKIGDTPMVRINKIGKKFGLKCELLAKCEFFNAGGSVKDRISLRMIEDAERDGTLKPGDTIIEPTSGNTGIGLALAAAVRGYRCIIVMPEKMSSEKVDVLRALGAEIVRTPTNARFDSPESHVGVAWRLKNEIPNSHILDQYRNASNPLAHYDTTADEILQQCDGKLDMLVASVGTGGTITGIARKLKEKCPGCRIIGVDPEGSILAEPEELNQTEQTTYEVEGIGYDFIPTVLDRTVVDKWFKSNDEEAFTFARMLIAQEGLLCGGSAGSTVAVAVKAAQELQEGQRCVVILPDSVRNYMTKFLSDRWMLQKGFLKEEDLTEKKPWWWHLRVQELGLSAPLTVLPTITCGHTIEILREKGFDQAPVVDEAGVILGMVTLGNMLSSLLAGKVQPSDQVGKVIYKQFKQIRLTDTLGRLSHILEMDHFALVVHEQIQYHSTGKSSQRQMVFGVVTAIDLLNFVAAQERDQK
Description: endogenous H2S in HepG2 cells (AzMC probe). The class given is cell-based. To be noted: for decrease in H2S: HepG2. The method, then: Fig. 3 The effect of CH004 on the activity of endogenous hCBS in cells. a CH004 dose-dependently elevates the levels of Hcys in HepG2 and HEK293T cells. HepG2 cells or HEK293T cells were incubated with indicated CH004 or DMSO (control) for 12 h. The amount of total Hcys in cells was measured by ELISA using Axis® Homocysteine EIA kit (IBL, AX51301) (“Materials and Methods” section). […] HepG2 cells were treated with indicated DMSO, CH004 or HA for 8 h before the staining with AzMC probe. The amount of the H2S (blue) was quantified and is shown in (c). Bars, 50 μm. Control (CTR), DMSO group (100%). A representative fluorescence image from three independent experiments is shown. Means ± SDS (n = 3). d CH004 elevates Hcys in the peripheral blood of rats. The total Hcys of the blood samples collected from the anesthetized rats at the 75 min time point (Materials and Methods) were quantified by ELISA (see above). Means ± SDS (n = 6).
H2S levels in living cells were detected using a H2S-specific fluorescent probe according to a protocol described previously[31],[55]. To measure H2S in transiently transfected HEK293T cells, the cells were seeded on poly-D-Lys-coated coverslips (Thermo Scientific, Waltham, MA, USA) in 12-well plates at a density of ~ 1 × 10^5 cells per well, and hCBS or hCSE plasmids were transiently transfected by X-tremeGENE HP DNA Transfection Reagent according to the manufacturer’s protocol (Roche, Basel, Switzerland). After 24 h, the transfected cells were treated with DMSO or inhibitors for another 8 h, followed by staining with 7-azide-4-methylcoumarin (AzMC; Sigma-Aldrich). Similarly, HEK293T cells stably expressing CBS WT, Q222A mutant or EV were seeded on poly-D-Lys-coated coverslips in 12-well plates for one day before treatment with DMSO or inhibitors for 8 h. After incubation with 50 μM AzMC at 37 °C for 30 min, the cells were washed 4 times with PBS, and the fluorescent images were recorded with excitation by 405 nm laser by using a A1Si (Nikon) confocal microscope. The intensity of the blue fluorescent signals, indicating the amount of H2S, was quantified by ImageJ software (NIH, Bethesda, ML). The H2S signal was then corrected for the background signal detected in HEK293T cells transiently or stably expressing of empty vector (HEK293T-EV) and normalized by the corresponding cell-occupying area and compared with the control (DMSO group, 100%). Similarly, the H2S signal in HepG2 cells was quantified by AzMC staining, corrected for the background signal outside the cells, normalized by the cell area and expressed as percentages of DMSO control (100%).
To elucidate the subcellular localization of H2S, HepG2 cells were seeded on poly-D-Lys-coated coverslips in 12-well plates. After treatment with DMSO or inhibitors for 8 h, cells were sequentially incubated with 200 nM Mito-Tracker® Green and 50 μM AzMC for 30 min at 37 °C in PBS, and then fluorescent images were taken using a confocal microscope.
Figure S9. The effect of AOAA on the level of endogenous H2S in HepG2 cells. […] HepG2 cells were incubated with 0 (DMSO control), 1, 5 or 10 mM AOAA for 8 h before staining with 50 μM AzMC. Upper panels, the overlaid images; middle panels, the corresponding fluorescent images (blue, H2S); the lower panels, the bright-field images. Bars: 50 μm. (B) Quantification of the mean fluorescent density of H2S (blue). The intensity of H2S was accordingly quantified and normalized by correcting for the background signal outside cells. Data was expressed as percentages of the control (DMSO group, 100%). Means ± SDs (n=3). One-way ANOVA with Bonferroni post-tests was used for the analysis. *, p< 0.05; ***, p< 0.001; n.s. no significance. The images are one representative from three independent experiments.

Regarding `Cn1nc(Cc2ccccc2)nc2c(=O)n(C)c(=O)nc1-2` [CH004, 3-benzyl-1,6-dimethylpyrimido[5,4-e][1,2,4]triazine-5,7(1H,6H)-dione], the “decrease in H2S” value by setting is: (5 μM, 8 h) ~ 50%; (20 μM, 8 h) ~ 90%. In addition, the “mitochondrial H2S” value (8 h, Mito-tracker Green and AzMC) was “dose-dependently decreases”. For the same compound, the “potency on inhibiting production of H2S in cells compared with AOAA” value (CH004 vs AOAA) is listed as “at least 1000 fold”.
